Data published in patent US20160355530A1, “HEPATITIS C INHIBITORS AND USES THEREOF” (AbbVie Inc., priority 2010, published 2016).
pEC50, pIC50: −log10 of the molar value. Where two headings read alike, the source gives them in different places.

What was measured:
[1] = target: T1, HCV NS5B polymerase 1a-H77 (Hepatitis C virus genotype 1a, UniProt P27958); assay: biochemical; design: species or system HCV genotype 1a; conditions: enzyme, strain 1a H77; read-out: HCV Polymerase Strain 1a H77 IC50
T1 construct: six-histidine tag; made in house; host or cells: E. coli
Method in brief: (§1)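 Incorporation of [3H]UTP (0.284 μM), alongside 20 μM each CTP and ATP, into RNA copied from a 5 nM 2.1 kb genotype 1b negative-strand template was measured after 3 h at 30° C using purified His-tagged NS5B truncated at residue 570. Product was spermine-precipitated, filtered and scintillation-counted; nonlinear regression gave IC50.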

[2] = target: T2, HCV NS5B polymerase 1a-H77-C316Y (Hepatitis C virus genotype 1a, UniProt P27958, C2736Y); assay: biochemical; design: species or system HCV genotype 1a
T2 construct: six-histidine tag; made in house; host or cells: E. coli
Method in brief: as §1

[3] = test system: HCV NS5B polymerase 1a-H77-C316Y; assay: biochemical; design: species or system HCV genotype 1a; conditions: ratio of enzyme IC50s, 1a H77-C316Y / 1a H77
Method in brief: as §1

[4] = target: T3, HCV NS5B polymerase 1b BK strain (Hepatitis C virus genotype 1b, UniProt P26663); assay: HCV NS5B polymerase enzymatic inhibition assay, strain 1b BK; assay type: biochemical; conditions: enzyme, strain 1b BK; read-out: HCV Polymerase Strain 1b BK IC50
T3 construct: six-histidine tag; made in house; host or cells: E. coli
Method in brief: as §1

[5] = test system: HCV 1a-H77 subgenomic replicon; assay: microbe, parasite or virus in culture; assay type: cell-based, HCV genotype 1a; conditions: Hepatitis C virus, stable replicon
[6] = test system: HCV 1b-BB7 subgenomic replicon; assay: microbe, parasite or virus in culture; assay type: cell-based, HCV genotype 1b; conditions: Hepatitis C virus, stable replicon
[7] = test system: chimeric replicon with 2a-J6CF-derived NS5B; assay: microbe, parasite or virus in culture; assay type: cell-based, HCV genotype 2a; conditions: Hepatitis C virus, read-out: 2a chimera 5% FBS EC50
[8] = test system: chimeric replicon with genotype 2b NS5B; assay: microbe, parasite or virus in culture; assay type: cell-based, HCV genotype 2b; conditions: Hepatitis C virus, read-out: 2b chimera 5% FBS EC50
[9] = test system: chimeric replicon with genotype 3a NS5B; assay: microbe, parasite or virus in culture; assay type: cell-based, HCV genotype 3a; conditions: Hepatitis C virus, read-out: 3a chimera 5% FBS EC50
[10] = test system: chimeric replicon with genotype 4a NS5B; assay: microbe, parasite or virus in culture; assay type: cell-based, HCV genotype 4a; conditions: Hepatitis C virus, read-out: 4a chimera 5% FBS EC50
[11] = 5% FBS, absence of human plasma, read-out: Stable Replicon 1a H77 5% FBS EC50
[12] = strain 1a H77, 5% FBS + 40% human plasma, read-out: 1a H77 5% FBS + 40% Human Plasma EC50
[13] = strain 1a H77, 5% FBS, no human plasma, read-out: 1a H77 5% FBS EC50
[14] = strain 1a H77, 5% FBS, read-out: 1a H77 5% FBS EC50
[15] = strain 1b BB7, 5% FBS + 40% human plasma, read-out: 1b BB7 5% FBS + 40% Human Plasma EC50
[16] = strain 1b BB7, 5% FBS, no human plasma, read-out: 1b BB7 5% FBS EC50
[17] = strain 1b BB7, 5% FBS, read-out: 1b BB7 5% FBS EC50

T2 sequence (P27958 2421-2990 C2736Y): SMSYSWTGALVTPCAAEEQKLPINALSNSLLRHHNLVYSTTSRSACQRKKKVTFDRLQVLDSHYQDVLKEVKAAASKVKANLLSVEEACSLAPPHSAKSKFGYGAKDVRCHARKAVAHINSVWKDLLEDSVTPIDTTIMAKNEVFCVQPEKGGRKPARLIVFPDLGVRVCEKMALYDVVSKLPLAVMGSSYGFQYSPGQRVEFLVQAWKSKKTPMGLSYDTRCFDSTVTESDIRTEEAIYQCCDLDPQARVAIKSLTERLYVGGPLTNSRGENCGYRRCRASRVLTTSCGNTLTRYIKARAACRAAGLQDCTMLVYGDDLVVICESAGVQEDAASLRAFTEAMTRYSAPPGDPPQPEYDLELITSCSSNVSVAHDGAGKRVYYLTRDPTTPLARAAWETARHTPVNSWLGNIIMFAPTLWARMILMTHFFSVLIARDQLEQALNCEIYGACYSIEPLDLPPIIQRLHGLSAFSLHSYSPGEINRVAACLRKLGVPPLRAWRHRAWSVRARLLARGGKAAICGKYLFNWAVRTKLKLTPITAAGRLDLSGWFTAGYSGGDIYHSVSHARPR
T1 sequence (P27958 2421-2990): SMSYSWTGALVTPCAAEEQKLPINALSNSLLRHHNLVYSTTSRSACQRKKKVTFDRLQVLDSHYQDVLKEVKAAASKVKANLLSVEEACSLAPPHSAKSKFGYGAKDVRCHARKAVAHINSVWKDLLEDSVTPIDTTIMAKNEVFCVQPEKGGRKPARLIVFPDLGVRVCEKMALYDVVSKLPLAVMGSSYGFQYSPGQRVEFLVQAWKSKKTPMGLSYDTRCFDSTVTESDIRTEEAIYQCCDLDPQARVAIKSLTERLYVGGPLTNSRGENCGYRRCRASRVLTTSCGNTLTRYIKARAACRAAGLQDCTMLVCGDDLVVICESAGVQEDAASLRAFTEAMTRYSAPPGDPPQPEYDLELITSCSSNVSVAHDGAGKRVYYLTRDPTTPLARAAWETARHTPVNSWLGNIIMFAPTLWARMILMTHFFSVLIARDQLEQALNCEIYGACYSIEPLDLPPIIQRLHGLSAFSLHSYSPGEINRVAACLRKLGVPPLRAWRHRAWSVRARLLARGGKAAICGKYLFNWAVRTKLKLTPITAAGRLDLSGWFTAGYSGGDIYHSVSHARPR
T3 sequence (P26663 2420-2989): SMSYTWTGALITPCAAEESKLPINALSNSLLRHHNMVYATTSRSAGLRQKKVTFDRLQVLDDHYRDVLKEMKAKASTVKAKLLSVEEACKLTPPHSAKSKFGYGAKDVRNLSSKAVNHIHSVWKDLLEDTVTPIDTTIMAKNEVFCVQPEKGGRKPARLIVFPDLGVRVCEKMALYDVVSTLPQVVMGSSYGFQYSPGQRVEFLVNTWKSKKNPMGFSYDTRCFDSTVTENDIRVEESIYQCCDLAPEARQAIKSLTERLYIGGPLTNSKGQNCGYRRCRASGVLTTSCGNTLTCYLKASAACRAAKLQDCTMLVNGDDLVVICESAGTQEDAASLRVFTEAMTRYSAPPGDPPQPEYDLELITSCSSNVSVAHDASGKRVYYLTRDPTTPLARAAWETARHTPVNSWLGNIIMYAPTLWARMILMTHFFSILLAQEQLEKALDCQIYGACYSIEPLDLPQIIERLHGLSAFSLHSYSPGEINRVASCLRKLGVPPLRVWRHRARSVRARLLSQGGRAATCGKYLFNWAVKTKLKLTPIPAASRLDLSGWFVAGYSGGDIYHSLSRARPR

Structure (SMILES) | pIC50 [1] | pIC50 [2] | C316Y/1a Fold Resistance [3] [fold] | pIC50 [4] | pEC50 [5, 11] | pEC50 [5, 12] | pEC50 [5, 13] | pEC50 [5, 14] | pEC50 [6, 15] | pEC50 [6, 16] | pEC50 [6, 17] | pEC50 [7] | pEC50 [8] | pEC50 [9] | pEC50 [10]
CS(=O)(=O)N(CCN1CCOCC1)c1cc2oc(-c3ccc(F)cc3)c(-c3ncc[nH]3)c2cc1C1CC1 [Example 58, N-[5-cyclopropyl-2-(4-fluorophenyl)-3-(1H-imidazol-2-yl)-1-benzofuran-6-yl]-N-[2-(morpholin-4-yl)ethyl]methanesulfonamide] | 8.14 | 6.88 | 18 | 7.54 | 7.66 | 6.48 | 7.66 | 7.66 | 6.71 | 7.92 | 7.92 | 7.10 | 6.89 | 8.01 | 6.89
CN(C)CCCN(c1cc2oc(-c3ccc(F)cc3)c(-c3ncc[nH]3)c2cc1C1CC1)S(C)(=O)=O [Example 59, N-[5-cyclopropyl-2-(4-fluorophenyl)-3-(1H-imidazol-2-yl)-1-benzofuran-6-yl]-N-[3-(dimethylamino)propyl]methanesulfonamide] | 7.87 | 5.82 | 112 | 7.25 | 7.07 | 6.80 | 7.07 | 7.07 | 7.70 | 7.95 | 7.95 | 7.19 | 6.90 | 7.99 | 6.37
CS(=O)(=O)N(CCCN1CCOCC1)c1cc2oc(-c3ccc(F)cc3)c(-c3ncc[nH]3)c2cc1C1CC1 [Example 60, N-[5-cyclopropyl-2-(4-fluorophenyl)-3-(1H-imidazol-2-yl)-1-benzofuran-6-yl]-N-[3-(morpholin-4-yl)propyl]methanesulfonamide] | 7.95 | 6.72 | 17 | 7.70 | 7.70 | 6.82 | 7.70 | 7.70 | 7.00 | 8.07 | 8.07 | 7.35 | 7.10 | 8.09 | 7.19
CS(=O)(=O)N(Cc1cnc(Br)s1)c1cc2oc(-c3ccc(F)cc3)c(-c3ncc[nH]3)c2cc1C1CC1 [Example 67, N-[(2-bromo-1,3-thiazol-5-yl)methyl]-N-[5-cyclopropyl-2-(4-fluorophenyl)-3-(1H-imidazol-2-yl)-1-benzofuran-6-yl]methanesulfonamide] | 8.46 | 6.63 | 68 | 7.92 | 7.27 | 6.00 | 7.27 | 7.27 | 6.59 | 7.86 | 7.86 | 7.06 | 7.11 | 8.10 | 6.63
COCCCN(c1cc2oc(-c3ccc(F)cc3)c(-c3ncc[nH]3)c2cc1C1CC1)S(C)(=O)=O [Example 69, N-[5-cyclopropyl-2-(4-fluorophenyl)-3-(1H-imidazol-2-yl)-1-benzofuran-6-yl]-N-(3-methoxypropyl)methanesulfonamide] | 8.19 | 6.69 | 32 | 7.54 | 7.86 | 6.59 | 7.86 | 7.86 | 7.23 | 8.18 | 8.18 | 7.21 | 7.17 | 8.03 | 7.08
CCCCCN(c1cc2oc(-c3ccc(F)cc3)c(-c3ncc[nH]3)c2cc1C1CC1)S(C)(=O)=O [Example 70, N-[5-cyclopropyl-2-(4-fluorophenyl)-3-(1H-imidazol-2-yl)-1-benzofuran-6-yl]-N-pentylmethanesulfonamide] | 8.07 | 7.16 | 8 | 7.62 | 7.38 | 6.19 | 7.38 | 7.38 | 6.53 | 7.45 | 7.45 | 6.76 | 6.63 | 7.57 | 6.55
CCCCCCN(c1cc2oc(-c3ccc(F)cc3)c(-c3ncc[nH]3)c2cc1C1CC1)S(C)(=O)=O [Example 71, N-[5-cyclopropyl-2-(4-fluorophenyl)-3-(1H-imidazol-2-yl)-1-benzofuran-6-yl]-N-hexylmethanesulfonamide] | 8.05 | 6.87 | 15 | 7.55 | 7.18 | 5.64 | 7.18 | 7.18 | 5.97 | 7.41 | 7.41 | 6.39 | 6.42 | 7.14 | 6.22
CC(=O)CCCN(c1cc2oc(-c3ccc(F)cc3)c(-c3ncc[nH]3)c2cc1C1CC1)S(C)(=O)=O [Example 73, N-[5-cyclopropyl-2-(4-fluorophenyl)-3-(1H-imidazol-2-yl)-1-benzofuran-6-yl]-N-(4-oxopentyl)methanesulfonamide] | 8.46 | 7.28 | 15 | 7.82 | 8.10 | 7.14 | 8.10 | 8.10 | 7.26 | 8.31 | 8.31 | 7.57 | 7.66 | 8.54 | 7.37
CSCCN(c1cc2oc(-c3ccc(F)cc3)c(-c3ncc[nH]3)c2cc1C1CC1)S(C)(=O)=O [Example 74, N-[5-cyclopropyl-2-(4-fluorophenyl)-3-(1H-imidazol-2-yl)-1-benzofuran-6-yl]-N-[2-(methylthio)ethyl]methanesulfonamide] | 8.52 | 6.97 | 36 | 7.89 | 7.87 | 6.60 | 7.87 | 7.87 | 6.90 | 8.19 | 8.19 | 7.19 | 7.24 | 8.35 | 7.06
CC(=O)CCCCN(c1cc2oc(-c3ccc(F)cc3)c(-c3ncc[nH]3)c2cc1C1CC1)S(C)(=O)=O [Example 77, N-[5-cyclopropyl-2-(4-fluorophenyl)-3-(1H-imidazol-2-yl)-1-benzofuran-6-yl]-N-(5-oxohexyl)methanesulfonamide] | 8.30 | 7.31 | 10 | 8.00 | 8.22 | 7.18 | 8.22 | 8.22 | 7.33 | 8.24 | 8.24 | 7.49 | 7.57 | 8.31 | 7.37
CS(=O)(=O)N(CCCS(=O)(=O)N1CCOCC1)c1cc2oc(-c3ccc(F)cc3)c(-c3ncc[nH]3)c2cc1C1CC1 [Example 79, N-[5-cyclopropyl-2-(4-fluorophenyl)-3-(1H-imidazol-2-yl)-1-benzofuran-6-yl]-N-[3-(morpholin-4-ylsulfonyl)propyl]methanesulfonamide] | 8.26 | 6.85 | 26 | 7.70 | 7.83 | 6.93 | 7.83 | 7.83 | 7.21 | 8.16 | 8.16 | 7.04 | 7.00 | 7.94 | 7.14
